Measurements taken from US20150105252A1, “SUBSTITUTED PYRAZOLES AS HERBICIDES” (E I DU PONT DE NEMOURS AND COMPANY, priority 2013, published 2015).

Key:
barnyardgrass = experiment: Test C flooded paddy test; assay type: in vivo, Echinochloa crus-galli; settings: Flood
How it was run: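 Ratings were visual and made relative to untreated controls after 13 to 15 greenhouse days.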

common ragweed = experiment: Test A preemergence; assay type: in vivo, Ambrosia elation
How it was run: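 Pre- and postemergence greenhouse test; loam+sand; cpd in non-phytotox. solvent/surfactant; post at 1–2 leaf, 2–10 cm; visual score ~10 d, 0 = none, 100 = complete control.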

soybean = experiment: Test F postemergence; assay type: in vivo, Glycine max; settings: scale 0 to 100
From the text: Seeds of plant species selected from corn (Zea mays), soybean (Glycine max), velvetleaf (Abutilon theophrasti), lambsquarters (Chenopodium album), wild poinsettia (Euphorbia heterophylla), pigweed, palmer (palmer pigweed, Amaranthus palmeri), common waterhemp (Amaranthus rudis), surinam grass (Brachiaria decumbens), large crabgrass (Digitaria sanguinalis), crabgrass, Brazil (Brazilian crabgrass, Digitaria horizontalis), fall panicum (Panicum dichotomiflorum), giant foxtail (Setaria faberii), green foxtail (Setaria viridis), goosegrass (Eleusine indica), johnsongrass (Sorghum halepense), common ragweed (Ambrosia elation), barnyardgrass (Echinochloa crus-galli), southern sandbur (Cenchrus echinatus), arrowleaf sida (Sida rhombifolia), Italian ryegrass (Lolium multiflorum), dayflower, VA (Virginia (VA) dayflower, Commelina virginica), field bindweed (Convolvulus arvensis), cocklebur (common cocklebur, Xanthium strumarium), morningglory (Ipomoea coccinea), nightshade (eastern black nightshade, Solanum ptycanthum), kochia (Kochia scoparia), yellow nutsedge (Cyperus esculentus), and hairy beggarticks (Bidens pilosa), were planted into a silt loam soil and treated preemergence with test chemicals formulated in a non-phytotoxic solvent mixture which included a surfactant.
At the same time, plants from these crop and weed species and also horseweed (Canada horseweed, Conyza canadensis), smartweed (ladysthumb smartweed, Polygonum persicaria), waterhemp_RES1, (ALS & Triazine resistant common waterhemp, Amaranthus rudis), and waterhemp_RES2, (ALS & HPPD resistant common waterhemp, Amaranthus rudis) were treated with postemergence applications of test chemicals formulated in the same manner. Plants ranged in height from 2 to 18 cm for postemergence treatments (1- to 4-leaf stage). Treated plants and controls were maintained in a greenhouse for 14 to 21 days, after which time all species were compared to controls and visually evaluated. Plant response ratings, summarized in Table F, are based on a scale of 0 to 100 where 0 is no effect and 100 is complete control. A dash (-) response means no test result.

crabgrass, naked = experiment: Test E preemergence; assay type: in vivo, Digitaria nuda; settings: 21 days, scale 0 to 100
From the text: Seeds of plant species selected from bermudagrass (Cynodon dactylon), Surinam grass (Brachiaria decumbens), crabgrass, large (large crabgrass, Digitaria sanguinalis), crabgrass, naked (naked crabgrass, Digitaria nuda), foxtail, green (green foxtail, Setaria viridis), johnsongrass (Sorghum halepense), kochia (Kochia scoparia), morningglory (pitted morningglory, Ipomoea lacunosa), nutsedge, purple (purple nutsedge, Cyperus rotundus), ragweed (common ragweed, Ambrosia elation), mustard, black (black mustard, Brassica nigra), guineagrass (Panicum maximum), dallisgrass (Paspalum dilatatum), barnyardgrass (Echinochloa crus-galli), sandbur (southern sandbur, Cenchrus echinatus), sowthistle (common sowthistle, Sonchus oleraceous), ryegrass, Italian (Italian ryegrass, Lolium multiflorum), signalgrass (broadleaf signalgrass, Brachiaria platyphylla), dayflower, VA (Virginia (VA) dayflower, Commelina virginica), bluegrass (annual bluegrass, Poa annua), quackgrass (Elytrigia repens), mallow (common mallow, Malva sylvestris), buckwheat, wild (wild buckwheat, Polygonum convolvulus), leafy spurge (Euphorbia esula), common chickweed (Stellaria media), wild poinsettia (Euphorbia heterophylla), pigweed, palmer (palmer pigweed, Amaranthus palmeri), and pigweed (redroot pigweed, Amaranthus retroflexus) were planted into a blend of loam soil and sand and treated preemergence with test chemicals formulated in a non-phytotoxic solvent mixture which included a surfactant.
Treated plants and controls were maintained in a greenhouse for 21 days, after which time all species were compared to controls and visually evaluated. Plant response ratings, summarized in Table E, are based on a scale of 0 to 100 where 0 is no effect and 100 is complete control. A dash (-) response means no test result.

[1] = 31 g ai/ha, scale 0 to 100 (0 no effect, 100 complete control)
[2] = 62 g ai/ha, scale 0 to 100 (0 no effect, 100 complete control)
[3] = 125 g ai/ha, scale 0 to 100 (0 no effect, 100 complete control)
[4] = 125 g ai/ha, visual injury, 0 to 100 scale, approx. 10 days
[5] = 500 g ai/ha, visual injury after approx. 10 days, 0 to 100 scale (0 no effect, 100 complete control)

SMILES | Plant response rating, Barnyardgrass (barnyardgrass; [1]) | Plant response rating, Barnyardgrass (barnyardgrass; [2]) | Plant response rating, Soybean (soybean; Postemergence, 31 g ai/ha) | Plant response rating, Soybean (soybean; Postemergence, 250 g ai/ha) | Plant response rating, Soybean (soybean; postemergence, 62 g ai/ha) | Plant response rating, Soybean (soybean; postemergence, 500 g ai/ha) | Plant response rating, Crabgrass, Naked (crabgrass, naked; 31 g ai/ha) | Plant response rating, Crabgrass, Naked (crabgrass, naked; 62 g ai/ha) | Plant response rating, Crabgrass, Naked (crabgrass, naked; 125 g ai/ha) | Plant response rating, Crabgrass, Naked (crabgrass, naked; 250 g ai/ha) | Plant response rating, Crabgrass, Naked (crabgrass, naked; 16 g ai/ha) | other results
CCc1cc(C(=O)NC2CC2)nn1Cc1ccnc(OCC(F)(F)F)c1 [Compound 200] | 0 | 0 | – | – | – | – | – | – | – | – | – | Plant response rating, Barnyardgrass (barnyardgrass; [3]): 20; Plant response rating, Barnyardgrass (barnyardgrass; 250 g ai/ha, scale 0 to 100): 40
CCOc1cc(C(=O)NC2CC2)nn1Cc1ccnc(OC(F)F)c1 [Compound 133] | – | – | – | – | – | – | – | – | – | – | – | Common Ragweed plant response rating (common ragweed; [4]): 80; Common Ragweed plant response rating (common ragweed; [5]): 90
CCc1cc(C(=O)NCC(F)(F)F)nn1Cc1ccnc(C(F)(F)F)c1 [Compound 78, 5-ethyl-N-(2,2,2-trifluoroethyl)-1-[[(2-trifluoromethyl)-4-pyridinyl]methyl]-1H-pyrazole-3-carboxamide] | – | – | 75 | 95 | 80 | 100 | 95 | 95 | 100 | 100 | – | –
CCc1cc(C(=O)NC(C)C)nn1Cc1ccnc(C(F)(F)F)c1 [Compound 103] | – | – | – | – | – | – | 100 | 100 | 100 | 100 | 100 | –
CCc1cc(C(=O)NC2CC2)nn1Cc1cc(C(F)(F)C(F)(F)F)nn1C [Compound 226] | 0 | 0 | – | – | – | – | – | – | – | – | – | Plant response rating, Barnyardgrass (barnyardgrass; [3]): 0
CCCc1cc(C(=O)NCC(F)(F)F)nn1Cc1ccnc(C(F)(F)F)c1 [Compound 105] | – | – | 70 | 95 | 80 | 100 | 100 | 100 | 100 | 100 | 90 | Plant response rating, Soybean (soybean; Postemergence, 125 g ai/ha): 90
CCOc1cc(C(=O)NCC(F)(F)F)nn1Cc1ccnc(C(F)(F)F)c1 [Compound 104] | – | – | 95 | 98 | 95 | 95 | 100 | 100 | 100 | 100 | 95 | Plant response rating, Soybean (soybean; Postemergence, 125 g ai/ha): 98
CCONC(=O)c1cc(OCC)n(Cc2ccnc(C(F)(F)F)c2)n1 [Compound 195] | 0 | 30 | – | – | – | – | – | – | – | – | – | Plant response rating, Barnyardgrass (barnyardgrass; [3]): 40; Plant response rating, Barnyardgrass (barnyardgrass; 250 g ai/ha, scale 0 to 100): 45
CCCNC(=O)c1cc(CCCl)n(Cc2ccnc(C(F)(F)F)c2)n1 [Compound 145] | 0 | 0 | – | – | – | – | – | – | – | – | – | Plant response rating, Barnyardgrass (barnyardgrass; 125 g ai/ha, scale 0 to 100): 30; Plant response rating, Barnyardgrass (barnyardgrass; 250 g ai/ha, scale 0 to 100): 40
CCONC(=O)c1cc(CC)n(Cc2cc(C(F)(F)F)no2)n1 [Compound 125] | – | – | – | – | – | – | – | – | – | – | – | Common Ragweed plant response rating (common ragweed; [4]): 50; Common Ragweed plant response rating (common ragweed; [5]): 90
CCc1cc(C(=O)NCC(F)(F)F)nn1Cc1cc(OC(F)F)nn1C [Compound 206] | – | – | – | – | – | – | – | – | – | – | – | Common Ragweed plant response rating (0 to 100 scale) (common ragweed; 125 g ai/ha, visual injury approx. 10 days after treatment): 0; Common Ragweed plant response rating (common ragweed; [5]): 40
CCOc1cc(C(=O)NC(C)C)nn1Cc1ccnc(C(F)(F)F)c1 [Compound 188] | – | – | 98 | 98 | 95 | 98 | – | – | – | – | – | Plant response rating, Soybean (soybean; Postemergence, 125 g ai/ha): 95
CCOc1cc(C(=O)NC2CC2)nn1Cc1ccnc(C(F)(F)F)c1 [Compound 189] | – | – | – | – | – | – | 100 | 100 | – | – | 100 | Plant response rating, Crabgrass, Naked (crabgrass, naked; 4 g ai/ha): 40; Plant response rating, Crabgrass, Naked (crabgrass, naked; 8 g ai/ha): 95
